Measured values published in US7718640B2, “Methods and pharmaceutical compositions for reliable achievement of acceptable serum testosterone levels” (Bayer-Schering Pharma AG, priority 2003, dated 2010).

How the values were obtained:
[1] = Comparison of initial phases with 6 versus 10 weeks between injections; serum testosterone (total) before each additional injection (Example 4); assay type: in vivo, men; settings: for Mean testosterone level (total) in serum after 1st injection / Mean testosterone level (total) in serum after 2nd injection: 6 men
Method: The pharmacokinetic profile of a formulation containing testosterone undecanoate (TU)1000 mg in a vehicle of 4 ml of a mixture of castor oil and benzyl benzoate in a ratio of 1:1.7 by volume was tested using two different regimens in hypogonadal men.
In regimen A, an initial phase of two first intramuscularly injections of 1000 mg TU with mean of 9.2-weeks (64.4 days) interval between the two injections, followed by a maintenance phase of subsequent intramuscularly injections of 1000 mg TU separated by an interval of a mean of 10.2 weeks ([…]) after second injection.
In regimen B, an initial phase of two first intramuscularly injections of 1000 mg TU with mean of 6.1-weeks (42.5 days) interval between the first two injections, followed by a maintenance phase of subsequent intramuscularly injections of 1000 mg TU separated by an interval of mean of 10.1 weeks (70.5 days) after second injections.
The concentration of testosterone (total) was determined in serum before each additional injection of TU.

[2] = Long-term efficacy and safety study of intramuscular TU 1000 mg in hypogonadal men (Example 2); assay type: in vivo; settings: 4 TU doses of 1000 mg i.m. per year (12-week intervals), 4 ml castor oil:benzyl benzoate 1:1.7
Method: The therapeutic efficacy and safety of a formulation containing testosterone undecanoate 1000 mg in a vehicle of 4 ml of a mixture of castor oil and benzyl benzoate in a ratio of 1:1.7 by volume has been investigated in hypogonadal men. The formulation (4 mL, 1000 mg of testosterone undecanoate) was injected intramuscularly to the hypogonadal men according to the following scheme: • initial phase comprising 4 injections of the formulation with intervals of 6 weeks between the injections. • maintenance phase comprising injecting the formulation in intervals of 10 or 12 weeks between injections.
The present study relates to a one-arm study examining the efficacy and safety of long-term intramuscular injection of testosterone undecanoate for the treatment of symptoms of hypogonadism in men. The patients received 4 testosterone undecanoate injections of 1000 mg the first three times of injections with an interval of 6 weeks, the 4th injection and subsequent injections with 12-week intervals.

[3] = Pharmacokinetic profile: total serum testosterone after intramuscular TU in hypogonadal men (Example 3, FIG. 1); assay type: in vivo
Method: See Example 3 for the injection scheme. […] The filled lines show the continued injection of 1000-mg TU with an interval of 12 weeks between injections.
The pharmacokinetic profile of a formulation containing testosterone undecanoate (TU) 1000 mg in a vehicle of 4 ml of a mixture of castor oil and benzyl benzoate in a ratio of 1:1.7 by volume was tested in hypogonadal men (having testosterone levels in serum of less than 10 nmol/l). An initial phase of two first intramuscularly injections of 1000 mg TU with 6-weeks interval between the two injections, followed by a maintenance phase of subsequent 3 intramuscularly injections of 1000 mg TU separated by an interval of 10 weeks between each of the injections. Then 1000 mg of testosterone undecanoate (TU) was intramuscularly injected every 12 weeks. 5 treatment periods were provided with an interval of 12 weeks between each injection.

## 17β-hydroxyandrost-4-en-3-one undecanoate [TU]
[1]; Regime A, mean 9.2 weeks after 1st injection of 1000 mg TU i.m.
  Mean testosterone level (total) in serum after 1st injection: 7.0 nmol/L
[1]; Regime A, mean 10.8 weeks after 2nd injection of 1000 mg TU i.m.
  Mean testosterone level (total) in serum after 2nd injection: 8.8 nmol/L
[1]; Regime B, mean 6.1 weeks after 1st injection of 1000 mg TU i.m.
  Mean testosterone level (total) in serum after 1st injection: 12.2 nmol/L
[1]; Regime B, mean 10.1 weeks after 2nd injection of 1000 mg TU i.m.
  Mean testosterone level (total) in serum after 2nd injection: 12.5 nmol/L
[1]; Regimen A: long-term intervals in both initial and maintenance phase
  sufficiency of testosterone levels over the entire period up to the following injection: do not result in the sufficient levels of testosterone above 10 nmol
[1]; Regimen B: interval in the initial phase decreased to 6 weeks
  testosterone levels over the period between injections: above 10 nmol/l
[2]
  restoration of physiological serum T levels: sufficient to restore physiological serum T levels in all 36 patients over most of the measurement times
[3]; 12 weeks after injection of 1000 mg TU i.m., maintenance phase
  minimum testosterone levels (total levels) after 12 weeks: ≥ 10 nmol
[3]; 14 weeks, upon extrapolating the serum levels of testosterone, lowest acceptable concentration about 10 nmol
  minimum testosterone levels for a treatment period of 14 weeks: The same was shown to apply
[3]; first injection interval 6 weeks, subsequent injections at 10 or 12 week intervals
  serum testosterone levels throughout the entire period between injections: 10 to 35 nmol/L
[3]; hypogonadal men, 1000 mg TU i.m. in 4 ml castor oil:benzyl benzoate 1:1.7, 2 injections 6 weeks apart, then 3 at 10-week, then 12-week intervals
  maximal and minimal testosterone levels (total levels) in serum: within the physiological acceptable range
[3]; same scheme as Example 3, 1000 mg TU i.m.
  accumulation of testosterone over time: no accumulation of testosterone is seen over time
